As usually defined, the viability, T/C is the result in the treated group divided by that in the control group, in per cent. As usually defined, the IC50 is the concentration that inhibits the measured activity by half.

“And” between values parts separate entries of the source, which are not always exact repeats. Equal values may be shown once.

The assay concerns PC-3 multi-cell spheroids, viability. The assay is described as follows: Anticancer human tumor PC-3 cell line growth inhibition [IpAb].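 As to all read-outs here: spheroids exposed to compounds for 7 days before readout.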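 As to viability, T/C: 100% = DMSO vehicle control wells.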 The settings on record: for viability, T/C: stronger effect = lower value. An excerpt:
Combinatorial screen of targeted agents with ipatasertib and abemaciclib in multi-cell type tumor spheroids
A high-throughput screen of multi-cell type tumor spheroids was designed to identify active combinations of targeted small molecules and ipatasertib or abemaciclib. Complex spheroids include a stromal component modeled by human endothelial cells (HUVEC) and fibroblasts modeled by human mesenchymal stem cells (MSCs). The concentration ranges selected for each drug and investigational agent were based upon clinically achievable concentrations if the clinical Cmax of the agent was known.
Compounds. The drugs and investigational agents: ipatasertib (NSC767898), abemaciclib(NSC768073), selumetinib (NSC741078), trametinib (758246), adavosertib (NSC754352), everolimus (NSC733504), sapanisertib (NSC764658), vemurafenib (NSC761431), venetoclax (NSC766270), copanlisib (NSC809693), apelisib (NSC765974), palbociblib (NSC758247), vemurafenib (NSC761431), dabrafenib (NSC764134), ravoxertinib (NSC781343), BMS-387032 (NSC767048), sotorasib (NSC818433), talazoparib (NSC767125) and afursertib (NSC778305), were obtained from the National Cancer Institute (NCI) Developmental Therapeutics Program Chemical Repository. The FDA-approved anticancer drug set is available from the NCI Developmental Therapeutics Program. […] The stock solutions were prepared in dimethyl sulfoxide (DMSO, Sigma-Aldrich, St. Louis, MO, cat. D2650) at 800-fold the tested concentration and stored at -70 degrees C prior to their use. All drugs and investigational agents were tested over a range starting from a high concentration at or near the clinical Cmax and decreasing in half-log increments. If the clinical Cmax for an agent had not been determined, the highest concentration tested was 10 microM.
NCI60 Cell Culture. NCI60 cell lines were obtained from the NCI Developmental Therapeutics Program Tumor Repository. For each lot of cells, the Repository performed Applied Biosystems AmpFLSTR Identifiler testing with PCR amplification to confirm consistency with the published Identifier STR profile for each cell line. Cells were kept in continuous culture for no more than 20 passages. The optimal seeding densities for each of the cell lines at each time point assessed were determined prior to performing the concentration response studies. Briefly, the NCI60 human tumor lines were grown as monolayers in RPMI 1640 medium supplemented with 10% FBS and 2 mmol/L L-glutamine.
An additional 9 lines were from the NCI60 cell line panel including MDA-MB-231 breast carcinoma, MDA-MB-468 breast carcinoma, MCF7 breast carcinoma, Hs578T breast carcinoma, MALME-3M melanoma, SK-MEL-2 melanoma, SK-OV-3 ovarian carcinoma, DU-145 prostate carcinoma, PC-3 prostate carcinoma, all cell lines along with major genetic alterations are listed on Table 2. Pooled donor human umbilical vein endothelial cells (HUVEC, Lonza, cat. CC-2519) and human mesenchymal stem cells (hMSC, Lonza, cat. PT-2501) were purchased from Lonza (Walkersville, MD).
PDMR cell lines were grown in complete medium (DC medium): Dulbecco's modified Eagle's medium (DMEM)/F12 supplemented with 5% fetal bovine serum (FBS), 2 mM L-glutamine, 100 U/mL penicillin and 100 µg/ml streptomycin, 0.4 µg/ml hydrocortisone, 10 ng/ml epidermal growth factor (EGF) recombinant human protein, 24 µg/mL adenine, and 0.1 mg/mL primocin. During culture from frozen stock vials, PDMR cells were cultured in the same medium containing 10 µM Y-27632 (see Table 3). The PDCs were cultured in complete DMEM/F12 media without 10 microM Y-27632 dihydrochloride for at least two passages prior to the screen. The pooled donor HUVEC and hMSC were cultured in endothelial cell growth medium 2 (PromoCell, Heidelberg, Germany, cat. C-22011) and mesenchymal stem cell growth medium 2 (PromoCell, cat. C-28009), respectively. For all experiments, HUVEC and hMSC were used at passages </=5.
[…]

Regarding `CC(C)n1nc(-c2ccc3oc(N)nc3c2)c2c(N)ncnc21`, the viability, T/C is, setting by setting: (compound 0.000316 µM) 93% and 98.7%; (compound 0.001 µM) 55.6% and 81.3%; (compound 0.00316 µM) 42.7% and 57.6%; (compound 0.01 µM) 25.8% and 25%; (compound 0.0316 µM) 11.9% and 12.8%; (compound 0.1 µM) 9.65% and 10.2%. Under “curve of compound”, the concentration for half-maximal inhibition (IC50) was 0.00171 µM and 0.00389 µM.

Turning to `CCCS(=O)(=O)Nc1ccc(F)c(C(=O)c2c[nH]c3ncc(-c4ccc(Cl)cc4)cc23)c1F` + CCN1CCN(Cc2ccc(Nc3ncc(F)c(-c4cc(F)c5nc(C)n(C(C)C)c5c4)n3)nc2)CC1, the 50% inhibitory concentration (IC50) came to 9.02 µM (curve of first compound, second compound 0.01 µM); 6.6 µM (curve of first compound, second compound 0.0316 µM); 8.63 µM (curve of first compound, second compound 0.1 µM); 4.29 µM (curve of first compound, second compound 0.316 µM); 3.41 µM (curve of first compound, second compound 1 µM). The viability, T/C was 92.5% (second compound 0.01 µM, first compound 0.0316 µM); 96.8% (second compound 0.01 µM, first compound 0.1 µM); 104% (second compound 0.01 µM, first compound 0.316 µM); 99.5% (second compound 0.01 µM, first compound 1 µM); 76.3% (second compound 0.01 µM, first compound 3.16 µM); 47.4% (second compound 0.01 µM, first compound 10 µM). Besides, the viability, T/C by setting is: (second compound 0.0316 µM, first compound 0.0316 µM) 65%; (second compound 0.0316 µM, first compound 0.1 µM) 79.1%; (second compound 0.0316 µM, first compound 0.316 µM) 71.7%; (second compound 0.0316 µM, first compound 1 µM) 77.8%; (second compound 0.0316 µM, first compound 3.16 µM) 69.3%; (second compound 0.0316 µM, first compound 10 µM) 38.8%. Moreover, the viability, T/C is 57.3% (second compound 0.1 µM, first compound 0.0316 µM); 57.4% (second compound 0.1 µM, first compound 0.1 µM); 68.6% (second compound 0.1 µM, first compound 0.316 µM); 64.1% (second compound 0.1 µM, first compound 1 µM); 61.9% (second compound 0.1 µM, first compound 3.16 µM); 34.9% (second compound 0.1 µM, first compound 10 µM). The viability, T/C is 64.7% (second compound 0.316 µM, first compound 0.0316 µM); 64% (second compound 0.316 µM, first compound 0.1 µM); 68% (second compound 0.316 µM, first compound 0.316 µM); 62.4% (second compound 0.316 µM, first compound 1 µM); 57.2% (second compound 0.316 µM, first compound 3.16 µM); 30.6% (second compound 0.316 µM, first compound 10 µM). Besides, the viability, T/C reads like this: (second compound 1 µM, first compound 0.0316 µM) 61.5%; (second compound 1 µM, first compound 0.1 µM) 58.5%; (second compound 1 µM, first compound 0.316 µM) 65.3%; (second compound 1 µM, first compound 1 µM) 54.6%; (second compound 1 µM, first compound 3.16 µM) 52.6%; (second compound 1 µM, first compound 10 µM) 30.6%.

Regarding `C=CCn1c(=O)c2cnc(Nc3ccc(N4CCN(C)CC4)cc3)nc2n1-c1cccc(C(C)(C)O)n1`, the viability, T/C by setting is: (compound 0.0316 µM) 102% and 104%; (compound 0.1 µM) 94% and 92.4%; (compound 0.316 µM) 68.1% and 67.3%; (compound 1 µM) 23.1% and 31.4%; (compound 3.16 µM) 26.6% and 22.3%; (compound 10 µM) 26.4% and 23.9%. The IC50 (curve of compound) was 0.515 µM and 0.548 µM.

As to `Cn1cnc2c(F)c(Nc3ccc(Br)cc3Cl)c(C(=O)NOCCO)cc21`, the viability, T/C was 105% and 99.8% (compound 0.00949 µM); 113% and 107% (compound 0.03 µM); 96.4% and 95.3% (compound 0.0949 µM); 85.1% and 96% (compound 0.3 µM); 91.9% and 91% (compound 0.949 µM); 65.1% and 73.2% (compound 3 µM). Also, the IC50 (curve of compound) is more than 3 µM.

The record behind these values is PubChem BioAssay AID2060327 (Molecular Pharmacology Branch, DTP, NCI, 2025).
